The results in this text go back to the Kinase Knowledgebase extract (Sharma et al. 2016).

A word on the IC50: it is the midpoint of a concentration-inhibition curve. The low end stands for greater potency, the high end for weaker potency.

The target in this experiment is PIK3CG (human) (UniProt P48736). Put plainly: Assessment of PIK3CG Kinase Activity.
Chain of PIK3CG (human) (P48736 whole entry, looked up): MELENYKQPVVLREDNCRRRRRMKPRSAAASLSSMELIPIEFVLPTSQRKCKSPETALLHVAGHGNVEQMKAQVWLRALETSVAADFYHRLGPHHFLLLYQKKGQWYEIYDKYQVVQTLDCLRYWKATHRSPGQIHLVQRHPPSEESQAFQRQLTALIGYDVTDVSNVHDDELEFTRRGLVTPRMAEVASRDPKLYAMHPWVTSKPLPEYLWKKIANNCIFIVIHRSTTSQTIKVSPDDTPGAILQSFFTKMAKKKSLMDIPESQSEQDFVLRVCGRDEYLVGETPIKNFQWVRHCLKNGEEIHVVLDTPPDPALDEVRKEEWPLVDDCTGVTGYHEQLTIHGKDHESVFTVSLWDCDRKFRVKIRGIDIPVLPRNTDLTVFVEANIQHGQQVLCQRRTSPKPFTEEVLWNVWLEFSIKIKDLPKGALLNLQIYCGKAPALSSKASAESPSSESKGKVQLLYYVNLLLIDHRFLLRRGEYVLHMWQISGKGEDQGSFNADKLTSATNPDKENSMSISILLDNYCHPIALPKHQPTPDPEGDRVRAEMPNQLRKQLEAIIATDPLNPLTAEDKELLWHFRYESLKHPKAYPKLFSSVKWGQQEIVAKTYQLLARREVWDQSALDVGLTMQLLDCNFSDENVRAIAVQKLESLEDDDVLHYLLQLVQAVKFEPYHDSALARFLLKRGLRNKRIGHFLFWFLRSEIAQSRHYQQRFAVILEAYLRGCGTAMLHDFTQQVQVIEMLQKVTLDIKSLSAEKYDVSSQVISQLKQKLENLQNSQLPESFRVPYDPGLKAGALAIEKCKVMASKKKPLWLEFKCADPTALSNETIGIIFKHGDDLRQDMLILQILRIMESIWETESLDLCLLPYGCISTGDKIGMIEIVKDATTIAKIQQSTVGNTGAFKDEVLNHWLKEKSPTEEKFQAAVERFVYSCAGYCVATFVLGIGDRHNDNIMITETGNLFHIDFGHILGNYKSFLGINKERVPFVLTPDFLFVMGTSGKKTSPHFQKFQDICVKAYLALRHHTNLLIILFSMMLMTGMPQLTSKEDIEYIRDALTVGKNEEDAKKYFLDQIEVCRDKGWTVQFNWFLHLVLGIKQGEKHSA
With `CC(=O)Nc1nc2c(s1)-c1c(c(N)nn1-c1ccccc1)CC2`, the IC50 is below 800 nM.
Compound `O=C(Nc1nc2c(s1)-c1nc(-c3ccccc3)ncc1CC2)N1CCCCC1` registered an IC50 below 800 nM.
Then `CC(=O)Nc1nc2c(s1)-c1c(cnn1-c1ccc(C(=O)N[C@H](CC(=O)O)C(N)=O)cc1Cl)CC2`, with below 800 nM; and `CC(=O)Nc1nc2c(s1)-c1c(c(C(C)C)nn1-c1ccc(C(=O)O)cc1Cl)CC2`, with below 800 nM.
For `CC(=O)Nc1nc2c(s1)-c1c(cnn1-c1ccc(C(=O)N(C)CC(C)O)cc1)CC2` (stereo not drawn), the IC50 is below 800 nM.
Then `CC(=O)Nc1nc2c(s1)-c1c(cnn1-c1ccc(C(=O)NCc3ccncc3)cc1)CC2`, with below 800 nM; and `CC(=O)Nc1nc2c(s1)-c1c(cnn1-c1c(Cl)cccc1Cl)C2`, with below 800 nM.
Then `CC(=O)Nc1nc2c(s1)-c1nc(N3CCCC(CNC(=O)OC(C)(C)C)C3)ncc1CC2` (stereo not drawn), with below 800 nM; and `CC(=O)Nc1nc2c(s1)-c1nc(N(C)CCN(C)C)ncc1CC2`, with below 800 nM.
For `CC(=O)Nc1nc2c(s1)-c1nc(C3CCCCC3)ncc1CC2` the value was below 800 nM; for `CC(=O)Nc1nc2c(s1)-c1nc(C3CC3)ncc1CC2`, below 800 nM.
The compound `CN(C)C(=O)Nc1nc2c(s1)-c1c(cnn1-c1ccccc1Cl)C2` gave an IC50 below 800 nM.
Then `CC(=O)Nc1nc2c(s1)-c1c(cnn1-c1ccc(C(=O)N3CCCC3c3ccncc3)cc1)CC2` (stereo not drawn), with below 800 nM; and `CC(=O)Nc1nc2c(s1)-c1c(cnn1-c1ccc(CC(=O)NCc3nc4ccccc4[nH]3)cc1)CC2`, with below 800 nM.
For `CC(=O)Nc1nc2c(s1)-c1c(cnn1-c1ccc(C(=O)NCCCN3CCOCC3)cc1)CC2` the value was below 800 nM; for `CC(=O)Nc1nc2c(s1)-c1nc(-c3cccc(Cl)c3)ncc1CC2`, below 800 nM; for `CC(=O)Nc1nc2c(s1)-c1c(c(C(=O)N[C@@H]3CCOC3=O)nn1-c1ccccc1)CC2`, below 800 nM.
For `CC(=O)Nc1nc2c(s1)-c1c(cnn1-c1ccc(S(=O)(=O)N(C)C)cc1)CC2` the value was below 800 nM; for `CC(=O)Nc1nc2c(s1)-c1c(cnn1-c1ccc(CC(=O)N(C)C)cc1)CC2`, below 800 nM; for `CC(=O)Nc1nc2c(s1)-c1c(cnn1-c1ccc(C(=O)NCCCC(N)=O)cc1Cl)CC2`, below 800 nM.
Compound `CC(=O)Nc1nc2c(s1)-c1nc(CCc3ccccc3)ncc1CC2` yielded an IC50 below 800 nM.
`CC(=O)Nc1nc2c(s1)-c1c(cnn1-c1ccc(C(=O)N3CCS(=O)(=O)CC3)cc1)CC2`: the IC50 is below 800 nM.
On to `CNC(=O)Nc1nc2c(s1)-c1c(cnn1-c1ccccc1Cl)C2`, for which the IC50 is below 800 nM.
For `CC(=O)Nc1nc2c(s1)-c1c(cnn1-c1ccc(C(=O)NCc3ncc[nH]3)cc1)CC2` the value was below 800 nM.
`CC(=O)Nc1nc2c(s1)-c1c(cnn1-c1ccc(C(=O)NCCN3CCOCC3)cc1)CC2` came in with an IC50 below 800 nM.
Then `CC(=O)Nc1nc2c(s1)-c1c(c(NC(=O)Oc3ccccc3)nn1-c1ccccc1Cl)CC2`, with below 800 nM.
Then `CC(=O)Nc1nc2c(s1)-c1c(cnn1-c1ccc(CC(=O)N3CCS(=O)(=O)CC3)cc1)CC2`, with below 800 nM.
For `CC(=O)Nc1nc2c(s1)-c1c(cnn1-c1ccc(C(=O)NC3CCC4(CC3)OCCO4)cc1)CC2` the value was below 800 nM; for `CC(=O)Nc1nc2c(s1)-c1c(cnn1-c1ccncc1)CC2`, below 800 nM.
`CC(=O)Nc1nc2c(s1)-c1c(cnn1-c1ccccn1)CC2` returned an IC50 below 800 nM.
`CC(=O)Nc1nc2c(s1)-c1c(cnn1-c1ccc(C(=O)N[C@@H](Cc3ccccc3)C(N)=O)cc1Cl)CC2` registered an IC50 below 800 nM.
Then `CC(=O)Nc1nc2c(s1)-c1c(cnn1-c1cc(O)cc(Cl)c1)CC2`, with below 800 nM.
For `CNc1ncc2c(n1)-c1sc(NC(C)=O)nc1CC2` the value was below 800 nM; for `CCn1ncc2c1-c1sc(NC(C)=O)nc1CC2`, below 800 nM.
Regarding `CC(=O)Nc1nc2c(s1)-c1c(cnn1-c1ccc(C(=O)N[C@H](Cc3cnc[nH]3)C(N)=O)cc1Cl)CC2`, the IC50 is below 800 nM.
For `CC(=O)Nc1nc2c(s1)-c1c(c(-c3ccco3)nn1-c1ccc(C(N)=O)cc1Cl)CC2` the value was below 800 nM; for `CCCn1ncc2c1-c1sc(NC(C)=O)nc1CC2`, below 800 nM; for `CC(=O)Nc1nc2c(s1)-c1c(cnn1-c1ccc(C(=O)N3C[C@@H](C)O[C@@H](C)C3)cc1Cl)CC2`, below 800 nM.
For `CC(=O)Nc1nc2c(s1)-c1c(cnn1-c1c(Cl)cccc1Cl)CC2` the value was below 800 nM; for `CC(=O)Nc1nc2c(s1)-c1c(cnn1-c1cc(C)ccc1C)CC2`, below 800 nM.
Then `CC(=O)Nc1nc2c(s1)-c1nc(N(C)C)ncc1CC2`, with below 800 nM; and `CCCN(CC)C(=O)Cc1ccc(-n2ncc3c2-c2sc(NC(C)=O)nc2CC3)cc1`, with below 800 nM; and `CC(=O)Nc1nc2c(s1)-c1c(c(C(C)C)nn1-c1ccc(C(=O)NC3CCN(C)CC3)cc1Cl)CC2`, with below 800 nM.
`CC(=O)Nc1nc2c(s1)-c1c(cnn1-c1ccc(S(C)(=O)=O)cc1)C2` gave an IC50 below 800 nM.
For `CC(=O)Nc1nc2c(s1)-c1c(c([C@H]3CCCO3)nn1-c1ccccc1)CC2` the value was below 800 nM.
With `CC(=O)Nc1nc2c(s1)-c1c(cnn1-c1ccc(C(=O)N3CCOCC3)cc1Cl)CC2`, the IC50 is below 800 nM.
Then `CC(=O)Nc1nc2c(s1)-c1c(cnn1-c1ccc(C(=O)NCc3cccnc3)cc1)CC2`, with below 800 nM; and `CC(=O)Nc1nc2c(s1)-c1nc(-c3ccccn3)ncc1CC2`, with below 800 nM.
With `CN(C)CCNC(=O)Nc1nc2c(s1)-c1c(cnn1-c1ccccc1)C2`, the IC50 is below 800 nM.
Then `CC(=O)Nc1nc2c(s1)-c1nc(Cc3ccccc3)ncc1CC2`, with below 800 nM; and `COc1ccc(-n2ncc3c2-c2sc(NC(C)=O)nc2CCC3)cc1`, with below 800 nM.
Take `CC(=O)Nc1nc2c(s1)-c1c(c(-c3ccoc3)nn1-c1ccccc1)CC2`: the IC50 was below 800 nM.
Then `CC(=O)Nc1nc2c(s1)-c1nc(Cc3c(Cl)cccc3Cl)ncc1CC2`, with below 800 nM.
For `CC(=O)Nc1nc2c(s1)-c1c(cnn1C(N)=O)CC2` the value was below 800 nM; for `CC(=O)Nc1nc2c(s1)-c1c(cnn1-c1ccc(C(=O)O)cc1Cl)CC2`, below 800 nM.
Then `CCC(=O)Nc1nc2c(s1)-c1nc(-c3ccccc3)ncc1CC2`, with below 800 nM; and `COCc1nn(-c2ccccc2Br)c2c1CCc1nc(NC(C)=O)sc1-2`, with below 800 nM.
As to `CC(=O)Nc1nc2c(s1)-c1c(cnn1C)CC2`, the IC50 is below 800 nM.
Consider `COc1cccc(-n2ncc3c2-c2sc(NC(C)=O)nc2CC3)c1`, for which the IC50 is below 800 nM.
In the case of `CC(=O)Nc1nc2c(s1)-c1c(cnn1C1C=CCCC1)CC2` (stereo not drawn), the IC50 is below 800 nM.
For `CCN(CCO)C(=O)c1ccc(-n2ncc3c2-c2sc(NC(C)=O)nc2CC3)cc1` the value was below 800 nM.
For `CC(=O)Nc1nc2c(s1)-c1c(c(-c3ccco3)nn1-c1cccc(Cl)c1)CC2` the value was below 800 nM; for `CC(=O)Nc1nc2c(s1)-c1c(cnn1-c1ccc(C(=O)N[C@@H](Cc3ccc4ccccc4c3)C(N)=O)cc1Cl)CC2`, below 800 nM.
With `CC(=O)Nc1nc2c(s1)-c1c(cnn1-c1ccc(C(=O)N3CCC(N4CCCS4(=O)=O)CC3)cc1)CC2`, the IC50 is below 800 nM.
`CC(=O)Nc1nc2c(s1)-c1c(cnn1-c1ccc(C(=O)Nc3ccc(C4CCN(C)CC4)cc3)cc1)CC2` displayed a half-maximal inhibitory concentration (IC50) below 800 nM.
`CC(=O)Nc1nc2c(s1)-c1c(c(C(C)C)nn1-c1ccccc1)CC2` showed an IC50 below 800 nM.
`CC(=O)Nc1nc2c(s1)-c1c(c(-c3c[nH]cn3)nn1-c1ccccc1C(F)(F)F)CC2` had an IC50 below 800 nM.
In turn, `CC(=O)Nc1nc2c(s1)-c1c(cnn1-c1ccc(CC(=O)NCCN3CCNC3=O)cc1)CC2` registered an IC50 below 800 nM.
`O=CNc1nc2c(s1)-c1nc(-c3ccccc3)ncc1CC2` had an IC50 below 800 nM.
`CC(=O)Nc1nc2c(s1)-c1c(c(-c3ccccn3)nn1-c1ccccc1)CC2` gave an IC50 below 800 nM.
For `CC(=O)Nc1nc2c(s1)-c1c(cnn1-c1ccc(C(=O)N[C@@H](COCc3ccccc3)C(N)=O)cc1Cl)CC2` the value was below 800 nM; for `CC(=O)Nc1nc2c(s1)-c1nc(-c3ccc(C(N)=O)cc3)ncc1CC2`, below 800 nM; for `CNCCNC(=O)Nc1nc2c(s1)-c1nc(-c3ccccc3)ncc1CC2`, below 800 nM.
In turn, `CC(=O)Nc1nc2c(s1)-c1c(cnn1-c1ccc(CC(=O)N3CCCC(C(N)=O)C3)cc1)CC2` (stereo not drawn) came in with an IC50 below 800 nM.
Then `CC(=O)Nc1nc2c(s1)-c1c(c([C@H]3CCCO3)nn1-c1ccc(C(=O)N[C@H]3CC[C@@H](N4CCCC4)CC3)cc1Cl)CC2`, with below 800 nM; and `CC(=O)Nc1nc2c(s1)-c1c(cnn1CCc1ccccc1)CC2`, with below 800 nM.
Then `CCCC(=O)n1ncc2c1-c1sc(NC(C)=O)nc1CC2`, with below 800 nM; and `CC(=O)Nc1nc2c(s1)-c1c(cnn1-c1ccc(C(=O)N[C@H](CCC(=O)O)C(N)=O)cc1Cl)CC2`, with below 800 nM.
Then `CC(=O)Nc1nc2c(s1)-c1c(cnn1-c1ccc(O)c(Cl)c1)CC2`, with below 800 nM.
Consider `CC(=O)Nc1nc2c(s1)-c1c(cnn1-c1ccc(C(=O)N3CCN(c4ccncc4)CC3)cc1)CC2`, for which the IC50 was below 800 nM.
As to `CC(=O)Nc1nc2c(s1)-c1c(cnn1-c1ccc(CC(=O)N3CCC(N4CCNC4=O)CC3)cc1)CC2`, the IC50 is below 800 nM.
`CC(=O)Nc1nc2c(s1)-c1c(c(C(=O)NCCO)nn1-c1ccccc1Cl)CC2` had an IC50 below 800 nM.
Turning to `CC(=O)Nc1nc2c(s1)-c1nc(C(F)(F)F)ncc1CC2`, the IC50 is below 800 nM.
`CN(C)C(=O)Nc1nc2c(s1)-c1nc(-c3ccccc3)ncc1CC2` came in with an IC50 below 800 nM.
For `CC(=O)Nc1nc2c(s1)-c1nc(-c3ccccc3Cl)ncc1C2` the value was below 800 nM; for `CC(=O)Nc1nc2c(s1)-c1c(cnn1-c1ccc(C(=O)N3CCN(NC(=O)c4ccc(F)cc4)CC3)cc1)CC2`, below 800 nM.
Regarding `CC(=O)Nc1nc2c(s1)-c1c(cnn1-c1ccc(C(=O)NC(CN3CCOCC3)CN3CCOCC3)cc1)CC2`, the half-inhibitory concentration (IC50) was below 800 nM.
`CC(=O)Nc1nc2c(s1)-c1c(c(C(C)C)nn1-c1ccc(C(=O)N[C@H]3CC[C@@H](N4CCCC4)CC3)cc1Cl)CC2` came in with an IC50 below 800 nM.
